Experiments:
pooled normal plasma = experiment: Thrombelastography/CLSM in pooled normal plasma (INR 1.0) with or without tPA; type: biochemical, human
Method: (§1) Pooled normal plasma (George King Bio-Medical, Overland Park, Kans.) anticoagulated with sodium citrate was utilized for experimentation. […] Plasma anticoagulated with sodium citrate procured from anonymous donors treated with warfarin was also obtained from the same vendor.
(§2) Plasma sample composition of experiments without tPA addition. The final volume for all subsequently described plasma sample mixtures was 359.6 μL. Sample composition consisted of 326 μL of plasma, 10 μL of tissue factor reagent (0.1% final concentration in dH2O; Instrumentation Laboratory, Lexington, Mass.), 3.6 μL of dimethyl sulfoxide (DMSO) or DMSO with CORM-2 (100 μM final concentration; Sigma-Aldrich, St. Louis, Mo.), and 20 μL of 200 mM CaCl2. Tissue factor stock was kept on ice prior to use and was remade every two hours. […] DMSO was added to dry CORM-2 just prior to placement into the plasma mixture. Six replicate experiments were performed with pooled normal plasma with or without CORM-2 added, whereas plasma obtained from subjects treated with warfarin underwent singlicate experiments with or without CORM-2 exposure.
Plasma sample composition of experiments with tPA addition. As in the series of experiments without tPA addition, the final volume of plasma sample mixtures was 359.6 μL. Sample composition consisted of 316 μL of plasma; 10 μL of tissue factor reagent (0.1% final concentration); 3.6 μL of DMSO without or with CORM-2 (100 μM final concentration); 10 μL of tPA diluted with 10 mM potassium phosphate buffer (pH 7.4) for a final activity of 100 IU/mL; and 20 μL of 200 mM CaCl2. As with tissue factor reagent, tPA stock was kept on ice prior to use and was remade every two hours. Six replicate experiments were performed with pooled normal plasma with or without CORM-2 added, whereas plasma obtained from subjects treated with warfarin underwent singlicate experiments with or without CORM-2 exposure.
Clot Lifespan Model Analyses. Plasma sample mixtures were placed in a disposable cup in a computer-controlled THROMBELASTOGRAPH® hemostasis system (Model 5000, Haemoscope Corp., Niles, Ill.), with addition of CaCl2 as the last step to initiate clotting. In the first series of experiments, no tPA was added and data were collected until clot strength (maximum amplitude) was stable. In the second series of experiments in which tPA was added, data were collected until clot lysis time occurred. […] The nomenclature used to describe these phenomena is as follows: Time to maximum rate of thrombus generation (TMRTG): This is the time interval (sec) observed prior to maximum speed of clot growth. Maximum rate of thrombus generation (MRTG): This is the maximum velocity of clot growth observed (dynes/cm^2/sec). Total Thrombus Generation (TTG): This is the total area under the velocity curve during clot growth (dynes/cm^2), representing the amount of clot strength generated during clot growth. Time to maximum rate of lysis (TMRL): This is the time interval (sec) measured from the time of maximum strength to the time when the velocity of clot disintegration is maximal. Maximum Rate of Lysis (MRL): This is the maximum velocity of clot disintegration observed (—dynes/cm^2/sec). Area of Clot Lysis (ACL): This is the total area under the velocity curve during clot disintegration (−dynes/cm^2), representing the amount of clot strength lost during clot disintegration.

[1] = tested on: plasma from donors treated with warfarin; experiment: Thrombelastography/CLSM in plasma of warfarin-treated donors with or without tPA; type: biochemical, human; details: warfarin-treated subjects, tPA 100 IU/mL; 100 μM CORM-2
Method: as §1, §2
Plasma sample composition of experiments with tPA addition. […]
Clot Lifespan Model Analyses. […] Time to maximum rate of lysis (TMRL): This is the time interval (sec) measured from the time of maximum strength to the time when the velocity of clot disintegration is maximal. […]

[2] = no tPA, 100 μM CORM-2, mean ± SD, n=6
[3] = tPA 100 U/ml, 100 μM CORM-2, mean ± SD, n=6
[4] = tPA 100 U/ml, 100 μM vs 0 μM CORM-2

SMILES: [C-]#[O+].[C-]#[O+].[C-]#[O+].[C-]#[O+].[C-]#[O+].[C-]#[O+].[Cl][Ru][Cl].[Cl][Ru][Cl] [CORM-2, tricarbonyldichlororuthenium (II) dimer]
- MRTG (maximum rate of thrombus generation) (pooled normal plasma; [2]): 15.0 ± 2.4 dynes/cm^2/sec
- TMRTG (time to maximum rate of thrombus generation) (pooled normal plasma; [2]): 2.26 ± 0.03 min
- TTG (total thrombus generation) (pooled normal plasma; [2]): 285 ± 38 dynes/cm^2
- Percent Change of MRTG (pooled normal plasma; no tPA, 100 μM vs 0 μM CORM-2): 102%
- Percent Change of TMRTG (pooled normal plasma; no tPA, 100 μM vs 0 μM CORM-2): −5%
- Percent Change of TTG (pooled normal plasma; no tPA, 100 μM vs 0 μM CORM-2): 70%
- CGT (clot growth time) (pooled normal plasma; [3]): 7.00 ± 0.94 min
- CLS (clot lifespan) (pooled normal plasma; [3]): 39.07 ± 2.82 min
- CLT (clot lysis time) (pooled normal plasma; [3]): 32.07 ± 3.15 min
- MRL (maximum rate of lysis) (pooled normal plasma; [3]): −2.4 ± 0.5 −dynes/cm^2/sec
- MRTG (maximum rate of thrombus generation) (pooled normal plasma; [3]): 15.2 ± 1.3 dynes/cm^2/sec
- TMRL (time to maximum rate of lysis) (pooled normal plasma; [3]): 22.92 ± 1.93 min
- TMRTG (time to maximum rate of thrombus generation) (pooled normal plasma; [3]): 2.14 ± 0.05 min
- TTG (total thrombus generation) (pooled normal plasma; [3]): 284 ± 27 dynes/cm^2
- Percent Change of CGT (pooled normal plasma; [4]): 58%
- Percent Change of CLS (pooled normal plasma; [4]): 91%
- Percent Change of CLT (pooled normal plasma; [4]): 100%
- Percent Change of MRL (pooled normal plasma; [4]): 68%
- Percent Change of MRTG (pooled normal plasma; [4]): 97%
- Percent Change of TMRL (pooled normal plasma; [4]): 103%
- Percent Change of TMRTG (pooled normal plasma; [4]): −2%
- Percent Change of TTG (pooled normal plasma; [4]): 106%
- effect on clot lifespan [1]: The clot lifespan was increased in all subjects
- increase in MRL, % of baseline values [1]: 11-181%
